According to patent publication US9085550B2, “Ligands for estrogen related receptors and methods for synthesis of said ligands” (CITY OF HOPE, priority 2005, dated 2015):

What was measured:
human ERα = target: T1, human ERα (Homo sapiens, UniProt P03372); test: ERE-TK-luc reporter transactivation assay in CV-1 cells, full-length hERa; assay type: cell-based; conditions: for Fold Activation, ERE-TK-luc, hERa: Table 7, CV-1, drug conc 30 μM; for Activation of ERa: specificity for ERRs
T1 construct: Human ERα and ERβ were examined as full-length proteins using an estrogen receptor responsive reporter construct; expressed in transfected cells; host or cells: CV-1
T1 sequence (P03372 1-595): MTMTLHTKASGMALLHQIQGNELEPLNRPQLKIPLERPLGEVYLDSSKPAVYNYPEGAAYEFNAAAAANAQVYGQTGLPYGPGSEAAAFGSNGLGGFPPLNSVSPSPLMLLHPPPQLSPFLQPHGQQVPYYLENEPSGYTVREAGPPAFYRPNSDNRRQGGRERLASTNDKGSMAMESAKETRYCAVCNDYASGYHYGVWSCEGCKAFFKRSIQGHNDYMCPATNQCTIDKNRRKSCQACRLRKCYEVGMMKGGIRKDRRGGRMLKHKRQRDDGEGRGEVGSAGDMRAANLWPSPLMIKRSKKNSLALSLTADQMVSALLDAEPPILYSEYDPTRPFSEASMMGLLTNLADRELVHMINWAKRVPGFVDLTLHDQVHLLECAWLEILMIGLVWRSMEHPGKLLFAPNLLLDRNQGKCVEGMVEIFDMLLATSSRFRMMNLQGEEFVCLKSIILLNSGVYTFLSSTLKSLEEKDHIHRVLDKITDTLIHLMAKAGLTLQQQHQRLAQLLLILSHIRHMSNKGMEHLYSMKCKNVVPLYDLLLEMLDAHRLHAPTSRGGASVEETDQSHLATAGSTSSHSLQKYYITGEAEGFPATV
Method: (§1) Human ERα and ERβ were examined as full-length proteins using an estrogen receptor responsive reporter construct.
(§2) Suitable reporter gene constructs are well known to skilled workers in the fields of biochemistry and molecular biology. […] Other vectors known in the art can be used in the methods of the present invention.
(§3) CV-1 cells for the activation assays were grown in Dulbecco's modified Eagle's medium supplemented with 10% resin charcoal-stripped fetal bovine serum, 50 U/ml penicillin G and 50 μg/ml streptomycin sulfate (DMEM-FBS) at 37° C. in 5% CO2. One day prior to transfection, cells were plated to 50-80% confluence using phenol red free DMEM-FBS.

[1] = target: T2, GAL-hERRa (human ERRα ligand binding domain fused to GAL4 DNA binding domain) (Homo sapiens, UniProt P11474); test: GAL4 reporter transactivation assay in CV-1 cells, GAL-hERRa; assay type: cell-based; conditions: for Fold activation, GAL-hERRa + PGC-1a / Fold activation, GAL-hERRa / Fold activation, Receptor ERRα: CV-1; for Fold activation, GAL-hERRa + PGC-1a: reporter 0.42:vector 0.00875:PGC-1a 0.035; for Fold activation, GAL-hERRa: reporter 0.42:vector 0.00875, no PGC-1a; for Activation of ERRα: in the presence of PGC-1a; for Fold activation, Receptor ERRα: Table 1, reporter 0.42:receptor vector 0.035:PGC-1a 0.035
T2 construct: expressed in transfected cells; host or cells: CV-1
T2 sequence (P11474 193-421 limits assumed): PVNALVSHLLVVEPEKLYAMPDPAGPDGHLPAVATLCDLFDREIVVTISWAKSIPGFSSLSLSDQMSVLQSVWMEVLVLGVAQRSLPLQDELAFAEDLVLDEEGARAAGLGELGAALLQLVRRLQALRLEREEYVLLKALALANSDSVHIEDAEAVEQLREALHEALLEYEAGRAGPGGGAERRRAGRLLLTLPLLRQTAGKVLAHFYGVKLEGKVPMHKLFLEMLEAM

human ERβ = target: T3, human ERβ (Homo sapiens, UniProt Q92731); test: ERE-TK-luc reporter transactivation assay in CV-1 cells, full-length hERb; assay type: cell-based; conditions: for Fold Activation, ERE-TK-luc, hERb: Table 7, drug conc 30 μM; for Fold Activation, ERE-TK-luc, hERb / Fold activation, Receptor ERRβ: CV-1; for Activation of ERb: specificity for ERRs; for Fold activation, Receptor ERRβ: Table 1 second block
T3 construct: Human ERα and ERβ were examined as full-length proteins using an estrogen receptor responsive reporter construct; expressed in transfected cells; host or cells: CV-1
T3 sequence (Q92731 whole entry): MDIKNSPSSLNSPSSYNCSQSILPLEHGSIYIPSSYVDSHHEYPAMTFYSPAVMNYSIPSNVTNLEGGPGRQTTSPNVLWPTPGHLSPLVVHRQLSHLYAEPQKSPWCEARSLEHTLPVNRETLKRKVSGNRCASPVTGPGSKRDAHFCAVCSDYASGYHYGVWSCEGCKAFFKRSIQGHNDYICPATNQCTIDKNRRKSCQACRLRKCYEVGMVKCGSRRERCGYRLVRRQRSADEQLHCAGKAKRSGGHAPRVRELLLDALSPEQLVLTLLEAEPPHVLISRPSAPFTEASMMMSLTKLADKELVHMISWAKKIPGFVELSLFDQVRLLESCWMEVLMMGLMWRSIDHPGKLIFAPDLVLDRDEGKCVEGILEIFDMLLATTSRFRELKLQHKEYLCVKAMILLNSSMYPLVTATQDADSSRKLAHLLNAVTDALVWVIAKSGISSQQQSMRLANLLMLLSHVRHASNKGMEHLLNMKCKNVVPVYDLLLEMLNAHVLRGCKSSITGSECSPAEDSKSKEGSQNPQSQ
Method: as §1, §2, §3

[2] = target: T4, HRHN-GAL (yeast GAL4 DNA binding domain without receptor sequences) (Saccharomyces cerevisiae, UniProt P04386); test: GAL4 reporter transactivation assay in CV-1 cells, control vector without receptor; assay type: cell-based, monkey; conditions: for Fold activation, HRHN-GAL: reporter 0.42:vector 0.00875, no PGC-1a
T4 construct: expressed in transfected cells; host or cells: CV-1
T4 sequence (P04386 1-147): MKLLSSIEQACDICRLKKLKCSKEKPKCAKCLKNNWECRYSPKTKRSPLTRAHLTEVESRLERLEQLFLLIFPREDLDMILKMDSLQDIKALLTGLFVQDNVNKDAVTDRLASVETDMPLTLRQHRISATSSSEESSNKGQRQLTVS

[3] = reporter 0.42:vector 0.00875:PGC-1a 0.035, 1 μM
[4] = reporter 0.42:vector 0.00875:PGC-1a 0.035, 3 μM (first 3 μM column)
[5] = reporter 0.42:vector 0.00875:PGC-1a 0.035, 3 μM (second 3 μM column)
[6] = reporter 0.42:vector 0.00875:PGC-1a 0.035, 10 μM
[7] = reporter 0.42:vector 0.00875:PGC-1a 0.035, 30 μM
[8] = reporter 0.42:vector 0.00875:PGC-1a 0.035, 0.3 μM

SMILES: Cc1cccc(C=NNC(=O)c2ccc(O)cc2)c1 [DY159, 4-Hydroxy-benzoic acid (3-methyl-benzylidene)-hydrazide]
- Fold Activation, ERE-TK-luc, hERa (human ERα): 1.59 fold
- Activation of ERa (human ERα): do not activate
- Fold activation, GAL-hERRa + PGC-1a ([1]; 1 μM): 1.18 fold
- Fold activation, GAL-hERRa + PGC-1a ([1]; 3 μM (first 3 μM column)): 1.69 fold
- Fold activation, GAL-hERRa + PGC-1a ([1]; 3 μM (second 3 μM column)): 1.55 fold
- Fold activation, GAL-hERRa + PGC-1a ([1]; 10 μM): 2.02 fold
- Fold activation, GAL-hERRa + PGC-1a ([1]; 30 μM): 2.61 fold
- Fold activation, GAL-hERRa ([1]; 1 μM): 1.03 fold
- Fold activation, GAL-hERRa ([1]; 3 μM (first 3 μM column)): 1.41 fold
- Fold activation, GAL-hERRa ([1]; 3 μM (second 3 μM column)): 1.23 fold
- Fold activation, GAL-hERRa ([1]; 10 μM): 1.64 fold
- Fold activation, GAL-hERRa ([1]; 30 μM): 2.41 fold
- Activation of ERRα [1]: can activate
- Fold Activation, ERE-TK-luc, hERb (human ERβ): 1.93 fold
- Activation of ERb (human ERβ): do not activate
- Fold activation, HRHN-GAL ([2]; 1 μM): 0.95 fold
- Fold activation, HRHN-GAL ([2]; 3 μM (first 3 μM column)): 1.08 fold
- Fold activation, HRHN-GAL ([2]; 3 μM (second 3 μM column)): 1.25 fold
- Fold activation, HRHN-GAL ([2]; 10 μM): 1.24 fold
- Fold activation, HRHN-GAL ([2]; 30 μM): 1.26 fold
- Fold activation, HRHN-GAL + PGC-1a [2, 3]: 1.31 fold
- Fold activation, HRHN-GAL + PGC-1a [2, 4]: 1.05 fold
- Fold activation, HRHN-GAL + PGC-1a [2, 5]: 1.03 fold
- Fold activation, HRHN-GAL + PGC-1a [2, 6]: 1.39 fold
- Fold activation, HRHN-GAL + PGC-1a [2, 7]: 1.11 fold

SMILES: CCN(CC)c1ccc(C=NNC(=O)c2ccc(O)cc2)cc1 [DY131, 4-Hydroxy-benzoic acid (4-diethylamino-benzylidene)-hydrazide]
- Activity on ERα (activate or inhibit) (human ERα; CV-1 reporter assay): failed to activate or inhibit
- Fold Activation, ERE-TK-luc, hERa (human ERα): 0.53 fold
- Activation of ERa (human ERα): do not activate
- Fold activation, GAL-hERRa + PGC-1a ([1]; 0.3 μM): 1.69 fold
- Fold activation, GAL-hERRa + PGC-1a ([1]; 1 μM): 2.07 fold
- Fold activation, GAL-hERRa + PGC-1a ([1]; 3 μM (first 3 μM column)): 2.43 fold
- Fold activation, GAL-hERRa + PGC-1a ([1]; 3 μM (second 3 μM column)): 2.47 fold
- Fold activation, GAL-hERRa + PGC-1a ([1]; 10 μM): 3.75 fold
- Fold activation, GAL-hERRa + PGC-1a ([1]; 30 μM): 3.31 fold
- Fold activation, GAL-hERRa ([1]; 0.3 μM): 1.10 fold
- Fold activation, GAL-hERRa ([1]; 1 μM): 0.96 fold
- Fold activation, GAL-hERRa ([1]; 3 μM (first 3 μM column)): 1.55 fold
- Fold activation, GAL-hERRa ([1]; 3 μM (second 3 μM column)): 1.57 fold
- Fold activation, GAL-hERRa ([1]; 10 μM): 1.44 fold
- Fold activation, GAL-hERRa ([1]; 30 μM): 1.87 fold
- Fold activation, Receptor ERRα ([1]; 3 μM): 1.5 fold
- Fold activation, Receptor ERRα ([1]; 10 μM): 1.7 fold
- Fold activation, Receptor ERRα ([1]; 30 μM): 1.6 fold
- Activation of the reporter construct for ERRα ([1]; Table 1 conditions (reporter:Gal-ERR:PGC-1a=0.4:0.035:0.035), any of the concentrations tested): failed to activate
- Activation of the reporter construct for ERRα ([1]; different assay conditions (reporter plasmid:Gal-ERR:PGC-1a=0.4:0.00875:0.035), Table 2): activated
- Activation of ERRα [1]: can activate
- Activity on ERβ (activate or inhibit) (human ERβ; CV-1 reporter assay): failed to activate or inhibit
- Fold activation, Receptor ERRβ (human ERβ; 3 μM): 1.1 fold
- Fold activation, Receptor ERRβ (human ERβ; 10 μM): 1.0 fold
- Fold activation, Receptor ERRβ (human ERβ; 30 μM): 1.2 fold
- Fold Activation, ERE-TK-luc, hERb (human ERβ): 1.19 fold
- Activation of ERb (human ERβ): do not activate
- Fold activation, Receptor — (first block) ([2]; Table 1, reporter 0.42:receptor vector 0.035:PGC-1a 0.035, 3 μM): 0.8 fold
- Fold activation, Receptor — (first block) ([2]; Table 1, reporter 0.42:receptor vector 0.035:PGC-1a 0.035, 10 μM): 0.7 fold
- Fold activation, Receptor — (first block) ([2]; Table 1, reporter 0.42:receptor vector 0.035:PGC-1a 0.035, 30 μM): 0.9 fold
- Fold activation, HRHN-GAL ([2]; 0.3 μM): 1.03 fold
- Fold activation, HRHN-GAL ([2]; 1 μM): 0.94 fold
- Fold activation, HRHN-GAL ([2]; 3 μM (first 3 μM column)): 0.74 fold
- Fold activation, HRHN-GAL ([2]; 3 μM (second 3 μM column)): 0.74 fold
- Fold activation, HRHN-GAL ([2]; 10 μM): 0.77 fold
- Fold activation, HRHN-GAL ([2]; 30 μM): 0.79 fold
- Fold activation, HRHN-GAL + PGC-1a [2, 8]: 1.00 fold
- Fold activation, HRHN-GAL + PGC-1a [2, 3]: 0.65 fold
- Fold activation, HRHN-GAL + PGC-1a [2, 4]: 0.72 fold
- Fold activation, HRHN-GAL + PGC-1a [2, 5]: 1.09 fold
- Fold activation, HRHN-GAL + PGC-1a [2, 6]: 0.69 fold
- Fold activation, HRHN-GAL + PGC-1a [2, 7]: 0.81 fold

SMILES: O=C(NN=Cc1ccccc1)c1ccc(O)cc1 [DY162, 4-Hydroxy-benzoic acid benzylidene-hydrazide]
- Fold Activation, ERE-TK-luc, hERa (human ERα): 1.74 fold
- Activation of ERa (human ERα): do not activate
- Fold activation, GAL-hERRa + PGC-1a ([1]; 0.3 μM): 1.26 fold
- Fold activation, GAL-hERRa + PGC-1a ([1]; 1 μM): 1.22 fold
- Fold activation, GAL-hERRa + PGC-1a ([1]; 3 μM (first 3 μM column)): 2.11 fold
- Fold activation, GAL-hERRa + PGC-1a ([1]; 3 μM (second 3 μM column)): 1.93 fold
- Fold activation, GAL-hERRa + PGC-1a ([1]; 10 μM): 2.18 fold
- Fold activation, GAL-hERRa + PGC-1a ([1]; 30 μM): 2.36 fold
- Fold activation, GAL-hERRa ([1]; 0.3 μM): 0.77 fold
- Fold activation, GAL-hERRa ([1]; 1 μM): 0.86 fold
- Fold activation, GAL-hERRa ([1]; 3 μM (first 3 μM column)): 0.89 fold
- Fold activation, GAL-hERRa ([1]; 3 μM (second 3 μM column)): 1.51 fold
- Fold activation, GAL-hERRa ([1]; 10 μM): 1.82 fold
- Fold activation, GAL-hERRa ([1]; 30 μM): 2.03 fold
- Activation of ERRα [1]: can activate
- Fold Activation, ERE-TK-luc, hERb (human ERβ): 1.74 fold
- Activation of ERb (human ERβ): do not activate
- Fold activation, HRHN-GAL ([2]; 0.3 μM): 1.14 fold
- Fold activation, HRHN-GAL ([2]; 1 μM): 1.07 fold
- Fold activation, HRHN-GAL ([2]; 3 μM (first 3 μM column)): 1.02 fold
- Fold activation, HRHN-GAL ([2]; 3 μM (second 3 μM column)): 1.12 fold
- Fold activation, HRHN-GAL ([2]; 10 μM): 1.26 fold
- Fold activation, HRHN-GAL ([2]; 30 μM): 1.25 fold
- Fold activation, HRHN-GAL + PGC-1a [2, 8]: 1.26 fold
- Fold activation, HRHN-GAL + PGC-1a [2, 3]: 1.17 fold
- Fold activation, HRHN-GAL + PGC-1a [2, 4]: 1.13 fold
- Fold activation, HRHN-GAL + PGC-1a [2, 5]: 1.97 fold
- Fold activation, HRHN-GAL + PGC-1a [2, 6]: 1.68 fold
- Fold activation, HRHN-GAL + PGC-1a [2, 7]: 1.93 fold
